Data published in patent publication US10351548B2, “2-oxo-1,2-dihydropyridine-3-carboxamide compounds and their use as inhibitors of PDK1” (INTERNATIONAL SOCIETY FOR DRUG DEVELOPMENT S.R.L., priority 2015, dated 2019).
Like-named read-outs stand apart in the source and are kept apart here.

Experiments:
Format in all cases: biochemical
CDK7/cyclin H/MNAT1 = CDK7/cyclin H/MNAT1 (Homo sapiens (Human), UniProt P50613); experiment: IB35 kinases profiling at 100 nM (Adapta); details: IB35 100 nM, ATP Km app
From the text: (§1) The results are reported below

CDK9/cyclin T1 = CDK9/cyclin T1 (Homo sapiens (Human), UniProt P50750); experiment: IB35 kinases profiling at 100 nM (Adapta); details: IB35 100 nM, ATP Km app
From the text: as §1

CHUK (IKK alpha) = CHUK (IKK alpha) (Homo sapiens (Human), UniProt O15111); experiment: IB35 kinases profiling at 100 nM (Adapta); details: IB35 100 nM, ATP Km app
From the text: as §1

PI4KB (PI4K beta) = PI4KB (PI4K beta) (Homo sapiens (Human), UniProt Q9UBF8); experiment: IB35 kinases profiling at 100 nM (Adapta); details: IB35 100 nM, ATP Km app
From the text: as §1

[1] = target: PIK3CA/PIK3R1 (p110 alpha/p85 alpha) (Homo sapiens (Human), UniProt P42336); experiment: IB35 kinases profiling at 100 nM (Adapta); details: IB35 100 nM, ATP Km app
Sequence of PIK3CA/PIK3R1 (p110 alpha/p85 alpha) (P42336 whole entry): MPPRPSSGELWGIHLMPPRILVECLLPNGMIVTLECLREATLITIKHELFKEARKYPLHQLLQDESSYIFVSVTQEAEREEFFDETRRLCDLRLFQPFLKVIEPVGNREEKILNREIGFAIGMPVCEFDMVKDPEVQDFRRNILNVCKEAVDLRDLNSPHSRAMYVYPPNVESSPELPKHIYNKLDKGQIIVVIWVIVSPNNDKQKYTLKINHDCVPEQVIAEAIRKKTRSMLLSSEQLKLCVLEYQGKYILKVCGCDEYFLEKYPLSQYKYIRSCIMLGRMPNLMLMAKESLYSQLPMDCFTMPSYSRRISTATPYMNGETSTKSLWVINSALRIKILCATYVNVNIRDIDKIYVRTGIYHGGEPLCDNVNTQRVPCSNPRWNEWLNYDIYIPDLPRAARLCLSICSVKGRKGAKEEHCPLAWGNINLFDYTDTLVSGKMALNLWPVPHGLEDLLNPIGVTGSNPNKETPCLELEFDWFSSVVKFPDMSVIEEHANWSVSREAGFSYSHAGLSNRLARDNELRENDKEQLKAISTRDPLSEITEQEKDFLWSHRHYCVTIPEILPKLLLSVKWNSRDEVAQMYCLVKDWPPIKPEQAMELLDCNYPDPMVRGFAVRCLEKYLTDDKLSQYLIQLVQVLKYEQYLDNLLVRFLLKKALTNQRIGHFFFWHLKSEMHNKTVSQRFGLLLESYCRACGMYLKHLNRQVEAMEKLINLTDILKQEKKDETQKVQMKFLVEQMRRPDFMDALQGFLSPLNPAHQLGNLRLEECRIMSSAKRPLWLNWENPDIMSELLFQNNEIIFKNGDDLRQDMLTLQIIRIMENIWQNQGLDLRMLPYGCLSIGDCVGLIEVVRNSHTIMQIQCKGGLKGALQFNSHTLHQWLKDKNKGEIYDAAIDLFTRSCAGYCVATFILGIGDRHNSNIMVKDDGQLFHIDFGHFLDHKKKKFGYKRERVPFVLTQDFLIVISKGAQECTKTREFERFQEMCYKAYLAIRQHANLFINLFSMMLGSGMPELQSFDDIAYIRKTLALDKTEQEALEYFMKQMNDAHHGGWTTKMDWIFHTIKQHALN
Sequence of PIK3CA/PIK3R1 (p110 alpha/p85 alpha) (P27986 whole entry partner): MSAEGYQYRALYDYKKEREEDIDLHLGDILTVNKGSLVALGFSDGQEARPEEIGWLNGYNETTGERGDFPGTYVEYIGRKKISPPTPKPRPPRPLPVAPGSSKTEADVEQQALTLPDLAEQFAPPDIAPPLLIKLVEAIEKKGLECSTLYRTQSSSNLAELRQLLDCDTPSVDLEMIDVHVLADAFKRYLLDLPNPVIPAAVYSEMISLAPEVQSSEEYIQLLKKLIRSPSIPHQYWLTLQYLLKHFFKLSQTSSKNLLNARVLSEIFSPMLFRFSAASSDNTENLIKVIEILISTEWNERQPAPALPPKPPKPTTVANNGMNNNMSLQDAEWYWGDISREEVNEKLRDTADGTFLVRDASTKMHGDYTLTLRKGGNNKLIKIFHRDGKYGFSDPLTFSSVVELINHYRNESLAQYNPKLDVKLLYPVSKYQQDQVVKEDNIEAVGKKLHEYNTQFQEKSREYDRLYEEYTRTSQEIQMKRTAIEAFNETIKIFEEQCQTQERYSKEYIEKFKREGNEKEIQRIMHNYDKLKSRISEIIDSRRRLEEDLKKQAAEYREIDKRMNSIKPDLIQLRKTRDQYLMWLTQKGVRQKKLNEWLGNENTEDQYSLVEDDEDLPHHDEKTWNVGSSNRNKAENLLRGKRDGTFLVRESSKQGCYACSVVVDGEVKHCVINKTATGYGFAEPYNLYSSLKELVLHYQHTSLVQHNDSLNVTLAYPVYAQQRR
From the text: as §1

[2] = target: PIK3CD/PIK3R1 (p110 delta/p85 alpha) (Homo sapiens (Human), UniProt O00329); experiment: IB35 kinases profiling at 100 nM (Adapta); details: IB35 100 nM, ATP Km app
From the text: as §1

PIK3CG (p110 gamma) = PIK3CG (p110 gamma) (Homo sapiens (Human), UniProt P48736); experiment: IB35 kinases profiling at 100 nM (Adapta); details: IB35 100 nM, ATP Km app
From the text: as §1

AKT3 (PKB gamma) = AKT3 (PKB gamma) (Homo sapiens (Human), UniProt Q9Y243); experiment: IB35 kinases profiling at 100 nM (ZLYTE); details: IB35 100 nM, ATP Km app
From the text: as §1

CDK1/cyclin B = CDK1/cyclin B (Homo sapiens (Human), UniProt P06493); experiment: IB35 kinases profiling at 100 nM (ZLYTE); details: IB35 100 nM, ATP Km app
From the text: as §1

CDK2/cyclin A = CDK2/cyclin A (Homo sapiens (Human), UniProt P24941); experiment: IB35 kinases profiling at 100 nM (ZLYTE); details: IB35 100 nM, ATP Km app
From the text: as §1

CSNK1A1 (CK1 alpha 1) = CSNK1A1 (CK1 alpha 1) (Homo sapiens (Human), UniProt P48729); experiment: IB35 kinases profiling at 100 nM (ZLYTE); details: IB35 100 nM, ATP Km app
From the text: as §1

CSNK2A2 (CK2 alpha 2) = CSNK2A2 (CK2 alpha 2) (Homo sapiens (Human), UniProt P19784); experiment: IB35 kinases profiling at 100 nM (ZLYTE); details: IB35 100 nM, ATP Km app
Sequence of CSNK2A2 (CK2 alpha 2) (P19784 whole entry, species assumed): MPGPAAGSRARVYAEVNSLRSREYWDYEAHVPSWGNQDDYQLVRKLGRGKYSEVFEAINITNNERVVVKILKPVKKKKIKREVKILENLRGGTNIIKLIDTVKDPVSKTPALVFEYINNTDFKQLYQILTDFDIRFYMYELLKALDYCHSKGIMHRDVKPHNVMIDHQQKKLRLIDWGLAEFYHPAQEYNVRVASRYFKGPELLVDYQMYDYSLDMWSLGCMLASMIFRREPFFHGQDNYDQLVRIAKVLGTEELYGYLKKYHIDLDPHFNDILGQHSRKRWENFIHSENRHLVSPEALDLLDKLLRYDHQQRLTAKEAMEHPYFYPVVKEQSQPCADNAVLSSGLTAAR
From the text: as §1

FRAP1 (mTOR) = FRAP1 (mTOR) (Homo sapiens (Human), UniProt P42345); experiment: IB35 kinases profiling at 100 nM (ZLYTE); details: IB35 100 nM, ATP Km app
From the text: as §1

ITK = ITK (Homo sapiens (Human), UniProt Q08881); experiment: IB35 kinases profiling at 100 nM (ZLYTE); details: IB35 100 nM, ATP Km app
From the text: as §1

LCK = LCK (Homo sapiens (Human), UniProt P06239); experiment: IB35 kinases profiling at 100 nM (ZLYTE); details: IB35 100 nM, ATP Km app
From the text: as §1

MAP2K1 (MEK1) = MAP2K1 (MEK1) (Homo sapiens (Human), UniProt Q02750); experiment: IB35 kinases profiling at 100 nM (ZLYTE); details: IB35 100 nM, ATP 100
From the text: as §1

MAPK1 (ERK2) = MAPK1 (ERK2) (Homo sapiens (Human), UniProt P28482); experiment: IB35 kinases profiling at 100 nM (ZLYTE); details: IB35 100 nM, ATP Km app
Sequence of MAPK1 (ERK2) (P28482 whole entry, species assumed): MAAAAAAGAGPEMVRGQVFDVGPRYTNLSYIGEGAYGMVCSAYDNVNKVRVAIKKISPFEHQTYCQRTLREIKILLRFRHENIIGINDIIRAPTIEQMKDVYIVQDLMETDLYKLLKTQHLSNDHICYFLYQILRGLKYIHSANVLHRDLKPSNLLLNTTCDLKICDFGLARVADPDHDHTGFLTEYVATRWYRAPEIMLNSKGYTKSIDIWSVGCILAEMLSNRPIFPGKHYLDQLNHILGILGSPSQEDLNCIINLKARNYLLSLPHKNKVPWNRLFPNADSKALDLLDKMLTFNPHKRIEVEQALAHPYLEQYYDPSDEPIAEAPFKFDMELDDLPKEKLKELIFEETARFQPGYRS
From the text: as §1

PAK6 = PAK6 (Homo sapiens (Human), UniProt Q9NQU5); experiment: IB35 kinases profiling at 100 nM (ZLYTE); details: IB35 100 nM, ATP Km app
From the text: as §1

PRKCA (PKC alpha) = PRKCA (PKC alpha) (Homo sapiens (Human), UniProt P17252); experiment: IB35 kinases profiling at 100 nM (ZLYTE); details: IB35 100 nM, ATP Km app
From the text: as §1

PRKCD (PKC delta) = PRKCD (PKC delta) (Homo sapiens (Human), UniProt Q05655); experiment: IB35 kinases profiling at 100 nM (ZLYTE); details: IB35 100 nM, ATP Km app
From the text: as §1

RAF1 (cRAF) Y340D Y341D = RAF1 (cRAF) Y340D Y341D (Homo sapiens (Human), UniProt P04049, Y340D/Y341D); experiment: IB35 kinases profiling at 100 nM (ZLYTE); details: IB35 100 nM, ATP 100
Sequence of RAF1 (cRAF) Y340D Y341D (P04049 whole entry Y340D/Y341D, species assumed): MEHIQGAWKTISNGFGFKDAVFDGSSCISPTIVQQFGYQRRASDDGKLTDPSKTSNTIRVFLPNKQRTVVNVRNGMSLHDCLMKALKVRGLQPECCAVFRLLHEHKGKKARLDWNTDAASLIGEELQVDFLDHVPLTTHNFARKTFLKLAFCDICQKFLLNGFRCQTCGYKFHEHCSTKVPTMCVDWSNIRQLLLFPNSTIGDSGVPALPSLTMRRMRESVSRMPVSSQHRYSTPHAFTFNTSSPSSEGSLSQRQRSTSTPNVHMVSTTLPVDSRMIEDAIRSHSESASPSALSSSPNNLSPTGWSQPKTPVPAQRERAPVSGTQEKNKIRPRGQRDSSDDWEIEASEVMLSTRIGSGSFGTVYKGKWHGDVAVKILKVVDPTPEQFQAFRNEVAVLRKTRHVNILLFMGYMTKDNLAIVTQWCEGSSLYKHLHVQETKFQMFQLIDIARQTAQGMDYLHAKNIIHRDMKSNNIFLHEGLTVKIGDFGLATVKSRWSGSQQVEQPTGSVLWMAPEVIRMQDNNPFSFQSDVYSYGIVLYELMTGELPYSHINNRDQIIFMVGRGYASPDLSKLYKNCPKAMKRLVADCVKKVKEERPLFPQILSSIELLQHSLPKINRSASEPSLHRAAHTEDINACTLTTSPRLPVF
From the text: as §1

ROCK2 = ROCK2 (Homo sapiens (Human), UniProt O75116); experiment: IB35 kinases profiling at 100 nM (ZLYTE); details: IB35 100 nM, ATP Km app
Sequence of ROCK2 (O75116 whole entry, species assumed): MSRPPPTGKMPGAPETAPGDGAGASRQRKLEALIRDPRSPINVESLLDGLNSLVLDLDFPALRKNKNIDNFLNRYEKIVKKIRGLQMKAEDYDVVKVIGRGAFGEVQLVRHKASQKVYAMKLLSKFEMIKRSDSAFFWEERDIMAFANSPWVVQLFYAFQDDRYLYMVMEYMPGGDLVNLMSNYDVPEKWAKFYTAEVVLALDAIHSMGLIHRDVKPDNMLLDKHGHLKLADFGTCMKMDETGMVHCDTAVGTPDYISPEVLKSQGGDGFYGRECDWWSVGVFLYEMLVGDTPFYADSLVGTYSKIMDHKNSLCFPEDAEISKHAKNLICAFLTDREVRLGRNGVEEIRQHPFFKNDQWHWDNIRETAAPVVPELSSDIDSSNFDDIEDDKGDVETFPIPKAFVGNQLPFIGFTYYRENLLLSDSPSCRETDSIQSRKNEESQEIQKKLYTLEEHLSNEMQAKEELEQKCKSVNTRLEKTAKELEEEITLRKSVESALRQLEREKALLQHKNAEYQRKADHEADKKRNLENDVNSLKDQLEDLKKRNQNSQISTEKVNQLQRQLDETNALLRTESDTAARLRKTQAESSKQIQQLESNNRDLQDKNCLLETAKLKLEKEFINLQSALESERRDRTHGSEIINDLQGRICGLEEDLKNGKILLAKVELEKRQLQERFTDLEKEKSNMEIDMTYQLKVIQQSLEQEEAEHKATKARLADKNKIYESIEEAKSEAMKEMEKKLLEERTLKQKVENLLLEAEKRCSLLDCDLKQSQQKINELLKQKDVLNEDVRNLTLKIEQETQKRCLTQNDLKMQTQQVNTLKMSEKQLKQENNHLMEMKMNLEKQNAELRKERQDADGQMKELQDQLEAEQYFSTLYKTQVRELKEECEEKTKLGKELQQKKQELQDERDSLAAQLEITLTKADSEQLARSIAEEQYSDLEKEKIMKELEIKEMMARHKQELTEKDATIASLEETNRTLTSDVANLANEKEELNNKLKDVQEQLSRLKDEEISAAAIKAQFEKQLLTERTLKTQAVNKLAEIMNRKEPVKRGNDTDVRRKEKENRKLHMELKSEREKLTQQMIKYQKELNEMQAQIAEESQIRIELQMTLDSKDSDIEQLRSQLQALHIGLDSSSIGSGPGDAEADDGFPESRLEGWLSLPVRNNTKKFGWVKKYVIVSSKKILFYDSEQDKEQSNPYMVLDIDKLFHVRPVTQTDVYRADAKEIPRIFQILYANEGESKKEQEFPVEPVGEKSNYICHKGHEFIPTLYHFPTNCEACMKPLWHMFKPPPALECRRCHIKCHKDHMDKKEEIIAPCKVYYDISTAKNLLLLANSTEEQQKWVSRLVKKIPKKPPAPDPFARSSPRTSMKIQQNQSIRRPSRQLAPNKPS
From the text: as §1

RPS6KA1 (RSK1) = RPS6KA1 (RSK1) (Homo sapiens (Human), UniProt Q15418); experiment: IB35 kinases profiling at 100 nM (ZLYTE); details: IB35 100 nM, ATP Km app
From the text: as §1

RPS6KB1 (p70S6K) = RPS6KB1 (p70S6K) (Homo sapiens (Human), UniProt P23443); experiment: IB35 kinases profiling at 100 nM (ZLYTE); details: IB35 100 nM, ATP Km app
Sequence of RPS6KB1 (p70S6K) (P23443 whole entry, species assumed): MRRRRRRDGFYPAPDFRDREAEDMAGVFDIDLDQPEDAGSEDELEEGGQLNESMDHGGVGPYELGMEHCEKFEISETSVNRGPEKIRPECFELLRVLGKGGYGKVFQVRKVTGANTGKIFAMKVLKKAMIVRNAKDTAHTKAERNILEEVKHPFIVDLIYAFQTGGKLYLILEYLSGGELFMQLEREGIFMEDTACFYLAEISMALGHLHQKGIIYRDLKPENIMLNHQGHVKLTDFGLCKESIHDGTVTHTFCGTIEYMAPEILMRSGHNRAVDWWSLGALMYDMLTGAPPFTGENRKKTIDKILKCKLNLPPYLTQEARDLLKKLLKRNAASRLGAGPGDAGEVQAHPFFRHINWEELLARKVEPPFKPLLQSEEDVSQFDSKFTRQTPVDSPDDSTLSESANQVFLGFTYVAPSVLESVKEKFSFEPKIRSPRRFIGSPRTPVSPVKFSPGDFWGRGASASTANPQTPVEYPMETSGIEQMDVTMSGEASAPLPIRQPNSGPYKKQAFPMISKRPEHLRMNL
From the text: as §1

For O=C(CNC(=O)c1cccn(Cc2ccc(F)c(F)c2)c1=O)Nc1ccc2c(c1)/C(=C/c1cnc[nH]1)C(=O)N2 [IB35, (Z)—N-(2-((3-((1H-imidazol-5-yl)methylene)-2-oxoindolin-5-yl)amino)-2-oxoethyl)-1-(3,4-difluorobenzyl)-2-oxo-1,2-dihydro pyridine-3-carboxamide], the inhibition at 0.1 µM (CDK7/cyclin H/MNAT1; read-out: % Inhibition 1) was 2%, the inhibition at 0.1 µM (CDK7/cyclin H/MNAT1; read-out: % Inhibition 2) was -1% and the inhibition at 0.1 µM (CDK7/cyclin H/MNAT1; read-out: % Inhibition Avg) was 1%. For the same compound, the inhibition at 0.1 µM (CDK9/cyclin T1; read-out: % Inhibition 1) was 7%, the inhibition at 0.1 µM (CDK9/cyclin T1; read-out: % Inhibition 2) was 5% and the inhibition at 0.1 µM (CDK9/cyclin T1; read-out: % Inhibition Avg) was 6%. It also gave an inhibition at 0.1 µM (CHUK (IKK alpha); read-out: % Inhibition 1) of -2%, an inhibition at 0.1 µM (CHUK (IKK alpha); read-out: % Inhibition 2) of 7% and an inhibition at 0.1 µM (CHUK (IKK alpha); read-out: % Inhibition Avg) of 3%. The inhibition at 0.1 µM (PI4KB (PI4K beta); read-out: % Inhibition 1) was -3%, the inhibition at 0.1 µM (PI4KB (PI4K beta); read-out: % Inhibition 2) was 12% and the inhibition at 0.1 µM (PI4KB (PI4K beta); read-out: % Inhibition Avg) was 4%. For the same compound, the inhibition at 0.1 µM ([1]; read-out: % Inhibition 1) was 16%, the inhibition at 0.1 µM ([1]; read-out: % Inhibition 2) was 24% and the inhibition at 0.1 µM ([1]; read-out: % Inhibition Avg) was 20%. For the same compound, the inhibition at 0.1 µM ([2]; read-out: % Inhibition 1) was 13%, the inhibition at 0.1 µM ([2]; read-out: % Inhibition 2) was 21% and the inhibition at 0.1 µM ([2]; read-out: % Inhibition Avg) was 17%. The inhibition at 0.1 µM (PIK3CG (p110 gamma); read-out: % Inhibition 1) was 6%, the inhibition at 0.1 µM (PIK3CG (p110 gamma); read-out: % Inhibition 2) was -1% and the inhibition at 0.1 µM (PIK3CG (p110 gamma); read-out: % Inhibition Avg) was 2%. The inhibition at 0.1 µM (AKT3 (PKB gamma); read-out: % Inhibition 1) was 3%, the inhibition at 0.1 µM (AKT3 (PKB gamma); read-out: % Inhibition 2) was 1% and the inhibition at 0.1 µM (AKT3 (PKB gamma); read-out: % Inhibition Avg) was 2%. The inhibition at 0.1 µM (CDK1/cyclin B; read-out: % Inhibition 1) was 10%, the inhibition at 0.1 µM (CDK1/cyclin B; read-out: % Inhibition 2) was 3% and the inhibition at 0.1 µM (CDK1/cyclin B; read-out: % Inhibition Avg) was 6%. The inhibition at 0.1 µM (CDK2/cyclin A; read-out: % Inhibition 1) was -1%, the inhibition at 0.1 µM (CDK2/cyclin A; read-out: % Inhibition 2) was 8% and the inhibition at 0.1 µM (CDK2/cyclin A; read-out: % Inhibition Avg) was 4%. The inhibition at 0.1 µM (CSNK1A1 (CK1 alpha 1); read-out: % Inhibition 1) was -3%, the inhibition at 0.1 µM (CSNK1A1 (CK1 alpha 1); read-out: % Inhibition 2) was -2% and the inhibition at 0.1 µM (CSNK1A1 (CK1 alpha 1); read-out: % Inhibition Avg) was -2%. For the same compound, the inhibition at 0.1 µM (CSNK2A2 (CK2 alpha 2); read-out: % Inhibition 1) was 4%, the inhibition at 0.1 µM (CSNK2A2 (CK2 alpha 2); read-out: % Inhibition 2) was 3% and the inhibition at 0.1 µM (CSNK2A2 (CK2 alpha 2); read-out: % Inhibition Avg) was 3%. It also gave an inhibition at 0.1 µM (FRAP1 (mTOR); read-out: % Inhibition 1) of -10%, an inhibition at 0.1 µM (FRAP1 (mTOR); read-out: % Inhibition 2) of -18% and an inhibition at 0.1 µM (FRAP1 (mTOR); read-out: % Inhibition Avg) of -14%. The inhibition at 0.1 µM (ITK; read-out: % Inhibition 1) was 17%, the inhibition at 0.1 µM (ITK; read-out: % Inhibition 2) was 12% and the inhibition at 0.1 µM (ITK; read-out: % Inhibition Avg) was 14%. It also gave an inhibition at 0.1 µM (LCK; read-out: % Inhibition 1) of 10%, an inhibition at 0.1 µM (LCK; read-out: % Inhibition 2) of 8% and an inhibition at 0.1 µM (LCK; read-out: % Inhibition Avg) of 9%. The inhibition at 0.1 µM (MAP2K1 (MEK1); read-out: % Inhibition 1) was -20%, the inhibition at 0.1 µM (MAP2K1 (MEK1); read-out: % Inhibition 2) was -6% and the inhibition at 0.1 µM (MAP2K1 (MEK1); read-out: % Inhibition Avg) was -13%. The inhibition at 0.1 µM (MAPK1 (ERK2); read-out: % Inhibition 1) was 5%, the inhibition at 0.1 µM (MAPK1 (ERK2); read-out: % Inhibition 2) was 6% and the inhibition at 0.1 µM (MAPK1 (ERK2); read-out: % Inhibition Avg) was 6%. The inhibition at 0.1 µM (PAK6; read-out: % Inhibition 1) was 1%, the inhibition at 0.1 µM (PAK6; read-out: % Inhibition 2) was -9% and the inhibition at 0.1 µM (PAK6; read-out: % Inhibition Avg) was -4%. The inhibition at 0.1 µM (PRKCA (PKC alpha); read-out: % Inhibition 1) was -2%, the inhibition at 0.1 µM (PRKCA (PKC alpha); read-out: % Inhibition 2) was 2% and the inhibition at 0.1 µM (PRKCA (PKC alpha); read-out: % Inhibition Avg) was 0%. The inhibition at 0.1 µM (PRKCD (PKC delta); read-out: % Inhibition 1) was -2%, the inhibition at 0.1 µM (PRKCD (PKC delta); read-out: % Inhibition 2) was -12% and the inhibition at 0.1 µM (PRKCD (PKC delta); read-out: % Inhibition Avg) was -7%. For the same compound, the inhibition at 0.1 µM (RAF1 (cRAF) Y340D Y341D; read-out: % Inhibition 1) was 10%, the inhibition at 0.1 µM (RAF1 (cRAF) Y340D Y341D; read-out: % Inhibition 2) was 11% and the inhibition at 0.1 µM (RAF1 (cRAF) Y340D Y341D; read-out: % Inhibition Avg) was 10%. For the same compound, the inhibition at 0.1 µM (ROCK2; read-out: % Inhibition 1) was 3%, the inhibition at 0.1 µM (ROCK2; read-out: % Inhibition 2) was 1% and the inhibition at 0.1 µM (ROCK2; read-out: % Inhibition Avg) was 2%. For the same compound, the inhibition at 0.1 µM (RPS6KA1 (RSK1); read-out: % Inhibition 1) was -3%, the inhibition at 0.1 µM (RPS6KA1 (RSK1); read-out: % Inhibition 2) was 7% and the inhibition at 0.1 µM (RPS6KA1 (RSK1); read-out: % Inhibition Avg) was 2%. It also gave an inhibition at 0.1 µM (RPS6KB1 (p70S6K); read-out: % Inhibition 1) of -3%, an inhibition at 0.1 µM (RPS6KB1 (p70S6K); read-out: % Inhibition 2) of -10% and an inhibition at 0.1 µM (RPS6KB1 (p70S6K); read-out: % Inhibition Avg) of -6%.
